Values of other authors as cited in PMC2796837 (Journal of biological inorganic chemistry : JBIC : a …, 2008).
Read-outs that look alike come from different tables or passages of the source. One block for each compound: values may come before it.

Key:
[1] = I = 1.0 M KCl, 25°C
[2] = I = 1.0 M KCl, 25°C; remark: listed apart in the source
[3] = I = 1.0 M KCl, 25°C; remark: listed apart in the source
[4] = I = 1.0 M KCl, 25°C; remark: listed apart in the source
[5] = I = 1.0 M KCl, 25°C; remark: listed apart in the source
[6] = I = 1.0 M KCl, 25°C; remark: listed apart in the source
[7] = I = 1.0 M KCl, 25°C; remark: listed apart in the source
[8] = I = 1.0 M KCl, 25°C; remark: listed apart in the source
[9] = I = 1.0 M KCl, 25°C; remark: listed apart in the source
[10] = Ce^3+ complex
[11] = I = 1.0 M KCl, 25°C; remark: listed apart in the source
[12] = I = 1.0 M KCl, 25°C; remark: listed apart in the source
[13] = I = 1.0 M and 25 °C

log K1^H [1]: 12.60 | log K2^H [1]: 9.70 | log K3^H [1]: 4.50 | log K4^H [1]: 4.14 | log K5^H [1]: 2.32 | log KCuL [2]: 22.72 | log KML, Ce^3+ [3]: 23.4 | log KML, Eu^3+ [4]: 23.5 | log KML, Lu^3+ [5]: 25.4 | log KML, Dy^3+ [6]: 24.8 | log KML, Nd^3+ [7]: 23.0 | log KML, Yb^3+ [8]: 25.0 | log KCaL [9]: 16.37 | log KMgL [11]: 11.15 | log KZnL [12]: 18.17
Structure (SMILES): O=C(O)CN1CCN(CC(=O)O)CCN(CC(=O)O)CCN(CC(=O)O)CC1 [DOTA]
k1 (proton assisted dissociation rate constant) [10]: 0.0008 M⁻¹ s⁻¹

log K1^H [13]: 4.83
Structure (SMILES): CN1CCNCC1 [N-methylpiperazine]

log K1^H [13]: 6.04
Structure (SMILES): C1CNCCN1 [piperazine]

Continued, compound first:

Structure (SMILES): O=C([O-])CN1CCN(CC(=O)[O-])CCN(C(CO)C(O)CO)CCN(CC(=O)[O-])CC1.[Gd+3] (centres unmarked) [GdDO3A-butrol]
LD50: 23 mmolkg^−1

Structure (SMILES): CC(O)CN1CCN(CC(=O)[O-])CCN(CC(=O)[O-])CCN(CC(=O)[O-])CC1.[Gd+3] (centres unmarked) [GdHP-DO3A]
LD50: 12 mmolkg^−1
